From patent US20210101874A1, “MICROBIOCIDAL OXADIAZOLE DERIVATIVES” (SYNGENTA PARTICIPATIONS AG, priority 2017, published 2021) come the findings set out here.

Assay [1] has as its system Glomerella lagenarium (Colletotrichum lagenarium). The assay is described as follows: Glomerella lagenarium (Colletotrichum lagenarium) liquid culture / cucumber / preventative (anthracnose). The following applies: Colletotrichum orbiculare; 20 ppm in the applied formulation; conidia in PDB nutrient broth, 24° C.; 3 to 4 days after application; compared to untreated; read-out: disease control (inhibition of growth measured photometrically). Format: cell-based. The method, then: Mycelia fragments or conidia suspensions of a fungus prepared either freshly from liquid cultures of the fungus or from cryogenic storage, are directly mixed into nutrient broth. DMSO solutions of the test compound (max. 10 mg/ml) are diluted with 0.025% Tween20 by a factor of 50 and 10 µl of this solution is pipetted into a microtiter plate (96-well format). The nutrient broth containing the fungal spores/mycelia fragments is then added to give an end concentration of the tested compound. The test plates are incubated in the dark at 24° C. and 96% relative humidity. The inhibition of fungal growth is determined photometrically after 2 to 7 days, depending on the pathosystem, and percent antifungal activity relative to the untreated check is calculated. Conidia of the fungus from cryogenic storage are directly mixed into nutrient broth (PDB—potato dextrose broth). After placing a (DMSO) solution of test compound into a microtiter plate (96-well format), the nutrient broth containing the fungal spores is added. The test plates are incubated at 24° C. and the inhibition of growth is measured photometrically 3 to 4 days after application. The following compounds at 20 ppm in the applied formulation give at least 80% disease control in this test when compared to untreated control under the same conditions, which show extensive disease development.

For assay [2], the system named is Puccinia recondita f. sp. Tritici. The assay is described as follows: Puccinia recondita f. sp. tritici / wheat / leaf disc preventative (brown rust). The conditions noted are these: foliar, 200 ppm in the applied formulation, wheat leaf segments cv. Kanzler, inoculated 1 day after application, compared to untreated, assessed 7 to 9 days after application, read-out: disease control. Type of assay: in vivo. The method, then: Leaf disks or leaf segments of various plant species are cut from plants grown in a greenhouse. The cut leaf disks or segments are placed in multiwell plates (24-well format) onto water agar. The leaf disks are sprayed with a test solution before (preventative) or after (curative) inoculation. Compounds to be tested are prepared as DMSO solutions (max. 10 mg/ml) which are diluted to the appropriate concentration with 0.025% Tween20 just before spraying. The inoculated leaf disks or segments are incubated under defined conditions (temperature, relative humidity, light, etc.) according to the respective test system. A single evaluation of disease level is carried out 3 to 14 days after inoculation, depending on the pathosystem. Percent disease control relative to the untreated check leaf disks or segments is then calculated. Wheat leaf segments cv. Kanzler were placed on agar in multiwell plates (24-well format) and sprayed with the formulated test compound diluted in water. The leaf disks were inoculated with a spore suspension of the fungus 1 day after application. The inoculated leaf segments were incubated at 19° C. and 75% relative humidity (rh) under a light regime of 12 hours light/12 hours darkness in a climate cabinet and the activity of a compound was assessed as percent disease control compared to untreated when an appropriate level of disease damage appears in untreated check leaf segments (7 to 9 days after application). The following compounds at 200 ppm in the applied formulation give at least 80% disease control in this test when compared to untreated control leaf disks under the same conditions, which show extensive disease development.

Molecules are shown by their SMILES.

For `O=S(=O)(Cc1ccccc1)N(Cc1ccc(-c2noc(C(F)(F)F)n2)cc1)C1CC1` [Compound 1.4, N-cyclopropyl-1-phenyl-N-[[4-[5-(trifluoromethyl)-1,2,4-oxadiazol-3-yl]phenyl]methyl] methanesulfonamide], the inhibition (commonly the change of the read-out against control, counted positive when it falls) at 20 ppm in assay [1] is no less than 80%.

On to `CCNS(=O)(=O)N(Cc1ccc(-c2noc(C(F)(F)F)n2)cc1)OC` [Compound 1.18, 3-[4-[[ethylsulfamoyl (methoxy)amino]methyl]phenyl]-5-(trifluoromethyl)-1,2,4-oxadiazole], for which the pest or weed control at 200 ppm in assay [2] was no less than 80%. The inhibition at 20 ppm in assay [1] was no less than 80%.

Regarding `CCCNS(=O)(=O)N(Cc1ccc(-c2noc(C(F)(F)F)n2)cc1)OC` [Compound 1.22, 3-[4-[[methoxy (propylsulfamoyl)amino]methyl]phenyl]-5-(trifluoromethyl)-1,2,4-oxadiazole], in assay [2], the pest or weed control at 200 ppm was no less than 80%. In assay [1], the inhibition at 20 ppm was no less than 80%.

As for `CCN(Cc1ccc(-c2noc(C(F)(F)F)n2)cc1)S(=O)(=O)c1ccccc1` [Compound 1.24, N-ethyl-N-[[4-[5-(trifluoromethyl)-1,2,4-oxadiazol-3-yl]phenyl]methyl] benzenesulfonamide], in assay [1], the inhibition at 20 ppm is no less than 80%.

In the case of `CCCN(Cc1ccc(-c2noc(C(F)(F)F)n2)cc1)S(=O)(=O)CCC` [Compound 1.26, N-propyl-N-[[4-[5-(trifluoromethyl)-1,2,4-oxadiazol-3-yl]phenyl]methyl] propane-1-sulfonamide], the inhibition at 20 ppm in assay [1] is no less than 80%.

Consider `CCN(Cc1ccc(-c2noc(C(F)(F)F)n2)cc1)S(=O)(=O)CC1CC1(Cl)Cl` (stereo not drawn) [Compound 1.31, 1-(2,2-dichlorocyclopropyl)-N-ethyl-N-[[4-[5-(trifluoromethyl)-1,2,4-oxadiazol-3-yl]phenyl]methyl] methanesulfonamide], for which the inhibition at 20 ppm in assay [1] was no less than 80%.

For the molecule `CCN(Cc1ccc(-c2noc(C(F)(F)F)n2)cc1)S(=O)(=O)N1CCCC1` [Compound 1.32, N-ethyl-N-[[4-[5-(trifluoromethyl)-1,2,4-oxadiazol-3-yl]phenyl]methyl] pyrrolidine-1-sulfonamide], the pest or weed control at 200 ppm in assay [2] was no less than 80%. Also, in assay [1], the inhibition at 20 ppm is no less than 80%.

Turning to `COCCS(=O)(=O)N(Cc1ccc(-c2noc(C(F)(F)F)n2)cc1)OC` [Compound 1.40, N,2-dimethoxy-N-[[4-[5-(trifluoromethyl)-1,2,4-oxadiazol-3-yl]phenyl]methyl] ethanesulfonamide], the inhibition at 20 ppm in assay [1] was no less than 80%.

For `CCCCS(=O)(=O)N(C)Cc1ccc(-c2noc(C(F)(F)F)n2)cc1` [Compound 1.55, N-methyl-N-[[4-[5-(trifluoromethyl)-1,2,4-oxadiazol-3-yl]phenyl]methyl] butane-1-sulfonamide], the inhibition at 20 ppm in assay [1] was no less than 80%.

As for `COC(=O)CS(=O)(=O)N(Cc1ccc(-c2noc(C(F)(F)F)n2)cc1)OC` [Compound 1.57, methyl 2-[methoxy-[[4-[5-(trifluoromethyl)-1,2,4-oxadiazol-3-yl]phenyl]methyl]sulfamoyl]acetate], the pest or weed control at 200 ppm in assay [2] is no less than 80%.

For the molecule `CNS(=O)(=O)N(Cc1ccc(-c2noc(C(F)(F)F)n2)cc1)OC` [Compound 1.58, 3-[4-[[methoxy(methylsulfamoyl)amino]methyl]phenyl]-5-(trifluoromethyl)-1,2,4-oxadiazole], the inhibition at 20 ppm in assay [1] was no less than 80%.

`CCCN(Cc1ccc(-c2noc(C(F)(F)F)n2)cc1)S(=O)(=O)CCC(=O)OC` [Compound 1.72, methyl 3-[propyl-[[4-[5-(trifluoromethyl)-1,2,4-oxadiazol-3-yl]phenyl]methyl]sulfamoyl]propanoate]: in assay [1], the inhibition at 20 ppm was no less than 80%.

With `C/C=C/S(=O)(=O)N(CCC)Cc1ccc(-c2noc(C(F)(F)F)n2)cc1` [Compound 1.75, (E)-N-propyl-N-[[4-[5-(trifluoromethyl)-1,2,4-oxadiazol-3-yl]phenyl]methyl] prop-1-ene-1-sulfonamide], the inhibition at 20 ppm in assay [1] was no less than 80%.

For the molecule `CCCN(Cc1ccc(-c2noc(C(F)(F)F)n2)cc1)S(=O)(=O)Cc1ccccc1` [Compound 1.77, 1-phenyl-N-propyl-N-[[4-[5-(trifluoromethyl)-1,2,4-oxadiazol-3-yl]phenyl]methyl] methanesulfonamide], the inhibition at 20 ppm in assay [1] is no less than 80%.

Take `CCCN(Cc1ccc(-c2noc(C(F)(F)F)n2)cc1)S(=O)(=O)CC` [Compound 1.78, N-propyl-N-[[4-[5-(trifluoromethyl)-1,2,4-oxadiazol-3-yl]phenyl]methyl] ethanesulfonamide]: the inhibition at 20 ppm in assay [1] is no less than 80%.

For `CON(Cc1ccc(-c2noc(C(F)(F)F)n2)cc1)S(=O)(=O)c1ccn(C)n1` [Compound 1.88, N-methoxy-1-methyl-N-[[4-[5-(trifluoromethyl)-1,2,4-oxadiazol-3-yl]phenyl]methyl] pyrazole-3-sulfonamide], the pest or weed control at 200 ppm in assay [2] was no less than 80%.

On to `C=CCS(=O)(=O)N(Cc1ccc(-c2noc(C(F)(F)F)n2)cc1)OC` [Compound 1.92, N-methoxy-N-[[4-[5-(trifluoromethyl)-1,2,4-oxadiazol-3-yl]phenyl]methyl] prop-2-ene-1-sulfonamide], for which the inhibition at 20 ppm in assay [1] was no less than 80%.

Consider `C/C=C/S(=O)(=O)N(Cc1ccc(-c2noc(C(F)(F)F)n2)cc1)OC` [Compound 1.94, (E)-N-methoxy-N-[[4-[5-(trifluoromethyl)-1,2,4-oxadiazol-3-yl]phenyl]methyl] prop-1-ene-1-sulfonamide], for which, in assay [1], the inhibition at 20 ppm was no less than 80%.

With `CC(C)N(Cc1ccc(-c2noc(C(F)(F)F)n2)cc1)S(=O)(=O)Cc1ccccc1` [Compound 1.99, N-isopropyl-1-phenyl-N-[[4-[5-(trifluoromethyl)-1,2,4-oxadiazol-3-yl]phenyl]methyl) methanesulfonamide], in assay [1], the inhibition at 20 ppm was no less than 80%.

As to `COC(=O)CS(=O)(=O)NCc1ccc(-c2noc(C(F)(F)F)n2)cc1` [Compound 2.11, methyl 2-[[4-[5-(trifluoromethyl)-1,2,4-oxadiazol-3-yl]phenyl]methyl-sulfamoyl] acetate], in assay [1], the inhibition at 20 ppm was no less than 80%.

Regarding `COC(=O)CS(=O)(=O)NCc1ccc(-c2noc(C(F)(F)F)n2)c(F)c1` [Compound 2.20, methyl 2-[[3-fluoro-4-[5-(trifluoromethyl)-1,2,4-oxadiazol-3-yl]phenyl]methyl-sulfamoyl] acetate], the inhibition at 20 ppm in assay [1] is no less than 80%.

Take `CCCCS(=O)(=O)NCc1ccc(-c2noc(C(F)(F)F)n2)cc1F` [Compound 2.23, N-[[2-fluoro-4-[5-(trifluoromethyl)-1,2,4-oxadiazol-3-yl]phenyl]methyl] butane-1-sulfonamide]: the inhibition at 20 ppm in assay [1] was no less than 80%.

Consider `Cc1ccc(S(=O)(=O)NCc2ccc(-c3noc(C(F)(F)F)n3)c(F)c2)s1` [Compound 3.15, N-[[3-fluoro-4-[5-(trifluoromethyl)-1,2,4-oxadiazol-3-yl]phenyl]methyl]-5-methyl-thiophene-2-sulfonamide], for which the inhibition at 20 ppm in assay [1] was no less than 80%.

As to `O=S(=O)(Cc1ccccc1)NCc1ccc(-c2noc(C(F)(F)F)n2)c(F)c1` [Compound 3.22, N-[[3-fluoro-4-[5-(trifluoromethyl)-1,2,4-oxadiazol-3-yl]phenyl]methyl]-1-phenyl-methanesulfonamide], in assay [2], the pest or weed control at 200 ppm was no less than 80%.

With `O=S(=O)(Cc1ccccc1)NCc1ccc(-c2noc(C(F)(F)F)n2)cc1F` [Compound 3.23, N-[[2-fluoro-4-[5-(trifluoromethyl)-1,2,4-oxadiazol-3-yl]phenyl]methyl]-1-phenyl-methanesulfonamide], the pest or weed control at 200 ppm in assay [2] is no less than 80%.

Consider `Cc1ccc(S(=O)(=O)NCc2ccc(-c3noc(C(F)(F)F)n3)cc2F)s1` [Compound 3.25, N-[[2-fluoro-4-[5-(trifluoromethyl)-1,2,4-oxadiazol-3-yl]phenyl]methyl]-5-methyl-thiophene-2-sulfonamide], for which the inhibition at 20 ppm in assay [1] is no less than 80%.

With `O=S(=O)(NCc1ccc(-c2noc(C(F)(F)F)n2)cc1F)c1ccccc1` [Compound 3.32, N-[[2-fluoro-4-[5-(trifluoromethyl)-1,2,4-oxadiazol-3-yl]phenyl]methyl] benzenesulfonamide], in assay [2], the pest or weed control at 200 ppm is no less than 80%.
